Reference: patent US10954549B2, “Detection and classification of an anticoagulant using a clotting assay” (Haemonetics Corporation, priority 2014, dated 2021)

Tests used:
citrated whole blood [1] = assay: TEG Kaolin test of blood spiked with anticoagulant; type: biochemical, human
Source text: (§1) The TEG clotting assay was used to determine if low, normal, and high doses of dabigatran, rivaroxaban, and apixaban could be detected in blood spiked with these compounds. Three oral anticoagulants (OAC), namely dabigatran, rivaroxaban, and apixaban, were spiked into blood obtained from 14 healthy volunteer human donors. For each OAC tested, citrated blood from three donors was spiked with three different concentrations of the active drug (i.e., the compound). The spiked blood samples and control samples spiked with diluent were tested with the TEG® 5000 Thrombelastograph® Hemostasis Analyzer (Haemonetics Corporation, Braintree, Mass., USA) using the Kaolin and RapidTEG® reagents (Haemonetics). Each sample was run in triplicate. All samples were tested with and without ecarin (purchased from Enzyme Research Laboratories, South Bend, IN). This study was IRB approved and all donors were over 18 and signed informed consent forms.
Dabigatran stock was prepared from the active dabigatran moiety (Alsachim, France) by dissolution in 0.1M HCl and further dilution in 1:1 DMSO:H20. […] Tubes of citrated blood were spiked with this dabigatran stock to create final concentrations of 500, 200, and 50 ng/mL of citrated whole blood.
Rivaroxaban stock was prepared by agitation of a 20 mg Xarelto tablet (Jannsen, Titusville, N.J.) in a 1:1 DMSO: H20 solution, which was diluted to a final concentration of 20 ng/uL rivaroxaban in 1:1 DMSO:H20. Tubes of citrated blood were spiked with this rivaroxaban stock to create final concentrations of 500, 89, and 22 ng/mL in citrated whole blood. […] Apixaban stock was prepared in a similar manner from a 2.5 mg Eliquis tablet (Bristol-Myers Squibb, New York, N.Y.), with final concentrations of 1000, 500, and 250 ng/mL in whole blood. Apixaban is approved for prevention of VTE in elective hip or knee replacement surgery (2.5 mg BID) and for prevention of stroke and systemic embolism in patients with non-valvular AF (5 mg BID) (see Bristol-Myers SP, EEIG. apixaban summary of product characteristics). […] Control samples, prepared for each tested drug, included a solvent control containing only citrated blood and the diluent used to dilute the drug stock, and an unadulterated citrate blood tube.
Testing was performed on TEG-5000 analyzers (Haemonetics Corp., Braintree, Mass., USA) using Kaolin vials, 0.2M CaCl2, RapidTEG (rTEG) vials, diluent water, and disposable clear cups and pins provided by the manufacturer (Haemonetics, Braintree, Mass.), and ecarin (Enzyme Research Laboratories, South Bend, Ind.). All testing was performed in triplicate at each dose, and allowed to continue until the MA (maximum amplitude) parameter defined. The various components of the TEG tracing are depicted in FIG. 3A. The Kaolin test generates an R parameter, which is measured in minutes, and is the time elapsed from the initiation of the test until the point where the onset of clotting provides enough resistance to produce a 2 mm amplitude reading on the TEG tracing. This parameter represents the initiation phase of coagulation related to the function of enzymatic clotting factors. The R parameter has a normal range of 5 to 10 min for kaolin. A prolonged R time indicates slower clot formation. K is a measurement of the time interval from the split point to the point where fibrin cross-linking provides enough clot resistance to produce a 20 mm amplitude reading. The α angle is the angle formed by the slope of a tangent line traced from the R to the K time and a central line measured in degrees. K time and the α angle denote the rate at which the clot strengthens, and is representative of thrombin's cleaving of the available fibrinogen into fibrin. The MA indicates the point at which clot strength reaches its maximum amplitude, measured in millimeters on the TEG tracing, and reflects the end result of maximal platelet-fibrin interaction via the GPIIb-IIIa receptors (see Khurana S et al., J Lab Clin Med. 130:401-411, 1997). […]

citrated whole blood [2] = assay: RapidTEG (rTEG) test of blood spiked with anticoagulant; type: biochemical, human
Source text: as §1
The RapidTEG (rTEG) test incorporated both tissue factor and kaolin to generate the conventional kaolin parameters as well as the TEG-ACT parameter, which is measured in seconds. The TEG-ACT is equivalent to the Activated Clotting Time (see Chavez J. J. et al., Anesth. Analg. 99:1290-1294, 2004) and has a normal range of 86 to 118 seconds. A prolonged TEG-ACT time indicates slower clot formation. In addition, velocity curves derived from the above mentioned kaolin and rTEG tests were plotted using TEG software. These curves represent the speed of clot propagation (MRTG, Maximum Rate of Thrombus Generation; and TMRTG, Time to Maximum Rate of Thrombus Generation) (see FIG. 3B).
For the RapidTEG (rTEG) test, the reagent was reconstituted with 20 μL diluent water, and allowed to stand for 5 minutes per manufacturer instructions. Ten μL of this reconstituted reagent was added to the TEG cup with 20 μl 0.2M CaCl2 for recalcification.
(§2) 340 μL of the citrated blood sample was added to the cup with these two reagents, and the contents of the cup were mixed 3 times by drawing the contents of the cup up into the pipette and redispensing it into the cup. The test was started immediately after mixing and allowed to run until the MA parameter had defined. The rTEG with ecarin test was performed as the rTEG test above, using 20 μL of an ecarin/CaCl2 solution (0.16M CaCl2; 19EU/mL ecarin).

citrated whole blood [3] = assay: TEG kaolin with ecarin test of spiked blood; type: biochemical, human
Source text: as §1
For the kaolin test, 1 mL of citrated blood sample was mixed with kaolin and 340 microliters (μL) of this blood was added to a TEG cup containing 20 μL of 0.2M CaCl2 for recalcification. The kaolin with ecarin test was performed in a similar fashion, using 20 μL of an ecarin/CaCl2 solution (0.16 M CaCl2; 19 EU/mL ecarin).
Ecarin is derived from the venom of the saw-scaled viper, Echis carinatus. Ecarin activates prothrombin (the precursor of thrombin—see FIG. 5). This activation of prothrombin by ecarin produces meizothrombin, a prothrombin-thrombin intermediate which has a low level of procoagulant enzymatic activity.
Healthy human volunteers (who are not being administered any anticoagulant), donated blood. Following donation, the blood collected from the donors (which was added to citrate to prevent clotting) was divided into portions, and portions of the blood were spiked with either nothing, dabigatran, or rivaroxaban. The portions were then assayed using thromboelastography, including assays performed in the presence of ecarin.

citrated whole blood [4] = assay: rTEG with ecarin test of spiked blood; type: biochemical, human
Source text: as §1, §2

[5] = tested on: blood from healthy volunteers; assay: Thromboelastography R time of spiked blood in the presence of the FXa reagent; type: biochemical, human; conditions: in vitro spiking, increasing concentrations
Description: Blood from healthy volunteers known not to be taking any oral anticoagulant and without any other significant health issues are analyzed using the FXa or the Ecarin reagent in a TEG® hemostasis analyzer. The FXa reagent (i.e., the Factor Xa reagent) is used to detect the presence (or absence) of an anticoagulant in the blood component being tested. In absence of any oral anticoagulant, the FXa reagent will accelerate the clotting process and result in a very short R-time. In presence of direct thrombin inhibitors and/or anti-Factor Xa anticoagulant(s), the process is slowed down and will cause elongation of the R-time. This difference in R-time is utilized to detect the presence of the oral anticoagulant. The R-time generated from multiple donors was used to construct a reference range. Blood was spiked with either direct thrombin inhibitors or anti-Xa(s) at different concentrations and analyzed using the FXa reagent or the Ecarin reagent. The drug concentrations chosen represent the published therapeutic ranges for these two classes of drugs. This assay was repeated in multiple donors to account for possible donor variations.

[6] = cited from earlier work
porcine plasma = assay: TEG 6S DTI channel R-time, porcine experimental trauma model; type: in vivo
Description: The TEG®6S system (Haemonetics Corp., Braintree, Mass.) is based on viscoelasticity measurements using resonance frequency and disposable multi-channel microfluidic cartridges. Blood and plasma from healthy volunteers were spiked with dabigatran in the therapeutic range (in increasing concentrations) and tested with an OAC cartridge with an ecarin based, direct thrombin inhibitor (DTI) channel. This channel was also evaluated with porcine plasma from an experimental trauma model (n=6) where dabigatran levels were measured with dilute TT (Hemoclot®). TEG 6s R-time (reaction time) was correlated to the drug levels.

## COc1ccc(-n2nc(C(N)=O)c3c2C(=O)N(c2ccc(N4CCCCC4=O)cc2)CC3)cc1 [apixaban, Apixaban]
Citrated whole blood [1]; 250 ng/mL, still within normal range
  MA versus control group: significantly different from the control group
Citrated whole blood [1]; highest concentration tested
  R time versus non-spiked blood sample: significantly higher
Citrated whole blood [1]; three concentrations per drug, Example 1
  R, K, α, and MRTG parameters, statistical significance versus control: able to detect the presence of all tested concentrations
Citrated whole blood [2]
  K, α and MRTG parameters versus control or between studied concentrations: did not show any statistical difference
  TMRTG parameter sensitivity to presence of drug: not
Citrated whole blood [2]; all studied concentrations
  MA values versus control: did not change
Citrated whole blood [2]; all tested concentrations (except rivaroxaban 22 ng/mL)
  TEG ACT parameter versus control group: significantly different
Citrated whole blood [2]; medium and higher concentrations
  ACT time versus non-spiked blood sample: significantly higher
Citrated whole blood [3]; FIGS. 8A-8C
  R time in the presence versus absence of ecarin: equivalent and significant shortening of R time
Citrated whole blood [3]; kaolin test
  MA values with ecarin relative to samples run without ecarin: statistically different
Citrated whole blood [3]; treated and control groups
  R, K and TMRTG values on addition of ecarin to the kaolin test: significant decrease
  α and MRTG values on addition of ecarin to the kaolin test: significant increase
Citrated whole blood [4]
  TEG-ACT times on addition of ecarin to the RapidTEG test: significantly decreases
Citrated whole blood [4]; any of the studied concentrations
  RapidTEG α angle when ecarin was added: did not change
Citrated whole blood [4]; highest and lowest concentrations
  RapidTEG K values when ecarin was added: significantly decreased
[5]
  R-time compared to the reference range, FXa reagent: dose dependent elongation of the R-time
[6]; in vivo
  half-lives compared: shorter half-lives than dabigatran
[6]; oral dose of 20 mg
  Cmax: 460 ng/mL
[6]; patients with severe renal impairment compared to healthy volunteers
  increased half-life: up to 44%

B1: idarucizumab: reversal agent that reverses the anticoagulant effect of dabigatran (Boehringer Ingelheim) (antibody, chains of the INN, looked up, V domains shown)
VH: QVQLQESGPGLVKPSETLSLTCTVSGFSLTSYIVDWIRQPPGKGLEWIGVIWAGGSTGYNSALRSRVSITKDTSKNQFSLKLSSVTAADTAVYYCASAAYYSYYNYDGFAYWGQGTLVTVSS
VL: DVVMTQSPLSLPVTLGQPASISCKSSQSLLYTDGKTYLYWFLQRPGQSPRRLIYLVSKLDSGVPDRFSGSGSGTDFTLKISRVEAEDVGVYYCLQSTHFPHTFGGGTKVEIK
Porcine plasma; after dabigatran, trauma model, baseline 3.4±0.6 min
  R-time after administration of the reversal agent: 3.6 ± 0.6 min
Porcine plasma; five separate swine plasma samples, FIG. 16
  R time upon administration of the reversal agent: returned to baseline
